Laboratory results from publication PMC2857410 (The Journal of neuroscience : the official journal of the …, 2009).

Legend:
[1] = target: heteromeric α7β2-nAChR (Xenopus oocytes) (Rattus norvegicus, UniProt P12390+Q05941); experiment: two-electrode voltage clamp, agonist-induced current; format: cell-based; details: 10 mM, 2 s exposure, -70 mV, pH 7.5
[2] = target: homomeric α7-nAChR (Xenopus oocytes) (Rattus norvegicus, UniProt Q05941); experiment: as above; format: cell-based; details: 10 mM, 2 s exposure, -70 mV, pH 7.5
Chain of homomeric α7-nAChR (Xenopus oocytes) (Q05941 23-502): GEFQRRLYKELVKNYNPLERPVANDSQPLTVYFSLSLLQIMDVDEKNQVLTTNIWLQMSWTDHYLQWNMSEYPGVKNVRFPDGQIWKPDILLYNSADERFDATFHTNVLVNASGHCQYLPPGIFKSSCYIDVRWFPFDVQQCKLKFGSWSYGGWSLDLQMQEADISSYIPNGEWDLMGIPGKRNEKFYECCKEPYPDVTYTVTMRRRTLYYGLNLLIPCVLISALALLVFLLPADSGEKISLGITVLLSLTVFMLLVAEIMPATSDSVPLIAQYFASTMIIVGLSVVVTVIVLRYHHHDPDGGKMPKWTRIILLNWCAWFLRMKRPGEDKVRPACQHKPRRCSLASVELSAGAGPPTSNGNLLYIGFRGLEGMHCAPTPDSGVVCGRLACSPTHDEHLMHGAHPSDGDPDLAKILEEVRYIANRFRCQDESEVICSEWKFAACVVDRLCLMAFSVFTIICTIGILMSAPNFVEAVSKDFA

Chain of heteromeric α7β2-nAChR (Xenopus oocytes) (Q05941 23-502): as above
Chain of heteromeric α7β2-nAChR (Xenopus oocytes) (P12390 25-500): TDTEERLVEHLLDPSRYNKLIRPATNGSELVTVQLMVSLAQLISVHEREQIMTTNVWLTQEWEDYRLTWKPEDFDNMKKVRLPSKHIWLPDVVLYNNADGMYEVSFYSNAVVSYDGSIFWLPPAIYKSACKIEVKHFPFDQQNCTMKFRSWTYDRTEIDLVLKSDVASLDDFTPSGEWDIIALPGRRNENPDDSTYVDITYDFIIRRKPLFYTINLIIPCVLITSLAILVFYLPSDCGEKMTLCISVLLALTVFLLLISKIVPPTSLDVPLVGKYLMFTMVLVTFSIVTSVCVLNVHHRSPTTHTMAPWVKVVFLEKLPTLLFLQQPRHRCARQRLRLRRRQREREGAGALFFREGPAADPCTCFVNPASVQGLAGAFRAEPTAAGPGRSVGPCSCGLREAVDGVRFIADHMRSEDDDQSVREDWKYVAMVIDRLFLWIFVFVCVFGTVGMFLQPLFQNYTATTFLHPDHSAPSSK

## C[N+](C)(C)CCO [choline]
[1]
  two-electrode voltage clamp, agonist-induced current: exhibited smaller peak current responses to choline and slower current decay rates
[2]
  two-electrode voltage clamp, agonist-induced current: oocytes injected with rat α7-nAChR subunit cRNA alone
